Read-outs that look alike come from different tables or passages of the source.
What was measured:
[1] = target: T1, PPARG (peroxisome proliferator-activated receptor gamma) (Homo sapiens, UniProt P37231); assay: ATG_PPARg_TRANS: Factorial reporter gene assay (HepG2); format: cell-based; conditions: HepG2 reporter
T1 construct: expressed in transfected cells; host or cells: HepG2
T1 sequence (P37231 1-505): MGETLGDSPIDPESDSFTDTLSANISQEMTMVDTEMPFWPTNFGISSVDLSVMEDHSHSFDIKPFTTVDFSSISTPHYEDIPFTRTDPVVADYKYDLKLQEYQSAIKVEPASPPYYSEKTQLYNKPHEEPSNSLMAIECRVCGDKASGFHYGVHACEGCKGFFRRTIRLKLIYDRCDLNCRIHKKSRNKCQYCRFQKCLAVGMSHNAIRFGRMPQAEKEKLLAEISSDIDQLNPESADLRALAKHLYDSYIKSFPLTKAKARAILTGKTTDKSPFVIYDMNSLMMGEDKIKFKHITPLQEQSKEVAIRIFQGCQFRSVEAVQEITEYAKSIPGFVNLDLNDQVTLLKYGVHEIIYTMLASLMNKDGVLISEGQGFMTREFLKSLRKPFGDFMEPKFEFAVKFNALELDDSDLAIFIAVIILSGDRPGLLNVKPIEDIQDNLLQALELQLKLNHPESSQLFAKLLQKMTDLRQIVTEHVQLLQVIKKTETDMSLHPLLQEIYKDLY
Method: (§1) A multiple reporter transcription unit (MRTU) library consisting of 48 transcription factor binding sites was transfected into the HepG2 human liver hepatoma cell line. In addition to the cis-acting reporter genes (CIS), a modification of the approach was used to generate a trans-system (TRANS) with a mammalian one-hybrid assay consisting of an additional 25 MRTU library reporting the activity of nuclear receptor super-family members. […] These assays were performed by Attagene Inc. (Morrisville NC) under contract to EPA.
(§2) In addition to the cis-acting reporter genes (CIS), a modification of the approach was used to generate a trans-system (TRANS) with a mammalian one-hybrid assay consisting of an additional 25 MRTU library reporting the activity of nuclear receptor super-family members. […] Chemicals were then tested in the CIS and TRANS assays at seven concentrations starting at the MTC and followed by three-fold serial dilutions. These assays were performed by Attagene Inc. (Morrisville NC) under contract to EPA. Detailed description of the methods, data and analysis methods for this dataset will be presented in a separate publication.

CYP1A1 = assay: CLZD_CYP1A1: Change in expression of CYP1A1 (primary human hepatocytes); format: cell-based; conditions: 24 hr
Method: (§3) This is a collection of multiplexed gene expression assays focused on Phase I and II xenobiotic metabolizing enzymes and transporters. Human primary cell cultures were treated with chemicals at 5 concentrations (0.004-40 [drawing 42] M) for 6, 24 and 48 hr. Concentration- and time-response profiles of chemicals were measured by the expression of key nuclear receptor target genes, activities of CYP1A enzymes (EROD), and cell morphology. Fourteen gene targets were monitored by quantitative nuclease protection assay including: six representative cytochrome P-450 genes, four hepatic transporters, three Phase II conjugating enzymes, and one endogenous metabolism gene involved in cholesterol synthesis. The target genes associated with nuclear receptor pathways are as follows: [drawing 43] and [drawing 44] with [drawing 45]; [drawing 46] , [drawing 47] , [drawing 48] , [drawing 49] , [drawing 50] and [drawing 51] with [drawing 52]; [drawing 53] , [drawing 54] , [drawing 55] and [drawing 56] with [drawing 57]; [drawing 58] with [drawing 59]; and [drawing 60] with [drawing 61] . Assays were run in primary human hepatocyte cultures by CellzDirect Invitrogen Inc. (Durham, NC), in collaboration with EPA.
(§4) Multiplexed Gene Expression in Human Primary Hepatocytes: This is a collection of multiplexed gene expression assays focused on Phase I and II metabolic enzymes and transporters. […] Fourteen gene targets were monitored by quantitative nuclease protection assay: six representative cytochrome P450 genes, four hepatic transporters, three Phase II conjugating enzymes, and one endogenous metabolism gene involved in cholesterol synthesis. Cells were exposed at 5 concentrations (0.004-40 µM) for 6, 24 or 48 hr. Gene targets are sentinels for five nuclear receptor signaling pathways: AhR, CAR, PXR, FXR, and PPARα. All gene are associated with nuclear receptor pathways: CYP1A1 and CYP1A2 with AHR; ABCB1, ABCG2, CYP2B6, CYP2C9, CYP2C19 and UGT1A1 with CAR; CYP3A4, GSTA2, SLCO1B1 and SULT2A1 with PXR; HMGCS2 with PPARA; and ABCB11 with FXR. […] Detailed description of the methods, data and analysis methods for this dataset will be presented in a separate publication.

CYP1A2 = assay: CLZD_CYP1A2: Change in expression of CYP1A2 (primary human hepatocytes); format: cell-based; conditions: 24 hr
Method: as §3, §4

CYP2B6 = assay: CLZD_CYP2B6: Change in expression of CYP2B6 (primary human hepatocytes); format: cell-based; conditions: 24 hr
Method: as §3, §4

Rat Liver [2] = conditions: ref ToxRefDB, cited from earlier work
Rat Liver [3] = conditions: ref ToxRefDB, cited from earlier work; remark: listed apart in the source
Rat Liver [4] = conditions: ref ToxRefDB, cited from earlier work; remark: listed apart in the source
PXR (NR1I2) [5] = target: T2, PXR (NR1I2) (Homo sapiens, UniProt O75469); assay: ATG_PXRE_CIS: Factorial reporter gene assay (HepG2); format: cell-based; parameters: endogenous in cells; host or cells: HepG2
T2 sequence (O75469 1-434): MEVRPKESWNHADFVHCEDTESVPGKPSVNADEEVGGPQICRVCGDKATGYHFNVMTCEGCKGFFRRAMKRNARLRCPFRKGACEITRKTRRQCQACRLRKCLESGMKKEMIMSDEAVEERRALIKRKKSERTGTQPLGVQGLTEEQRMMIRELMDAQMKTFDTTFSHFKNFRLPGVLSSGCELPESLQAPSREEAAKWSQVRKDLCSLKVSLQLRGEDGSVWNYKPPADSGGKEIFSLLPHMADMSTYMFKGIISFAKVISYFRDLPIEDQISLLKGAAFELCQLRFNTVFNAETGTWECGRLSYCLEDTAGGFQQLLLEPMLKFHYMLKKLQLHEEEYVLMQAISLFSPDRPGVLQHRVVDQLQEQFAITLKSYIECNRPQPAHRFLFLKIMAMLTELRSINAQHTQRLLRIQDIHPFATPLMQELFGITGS
Method: as §1, §2

PXR (NR1I2) [6] = target: T2, PXR (NR1I2); assay: NVS_NR_hPXR: Human PXR Fluormone PXR (SXR) green (cell-free HTS); format: binding
Excerpt: These are a collection of biochemical assays measuring binding constants and enzyme inhibition values. Chemicals were initially screened at a single concentration in duplicate wells at a concentration of 10 [drawing 63] M for cytochrome P-450 assays and 25 [drawing 64] M for all others. […] These assays were run by Caliper Life Sciences (Hanover, MD) under contract to EPA. Short assay descriptions are available at: http://www.caliperls.com/products/contract-research/in-vitro/.
Cell-free HTS Assays: A collection of biochemical assays measuring binding constants and enzyme inhibition values. […] These assays were run by Caliper Life Sciences (Hanover, MD) under contract to EPA. Short assay descriptions are available at http://www.caliperls.com/products/contract-research/in-vitro/. Values for all endpoints were imported into GeneData Screener (Basel, Switzerland) and normalised to solvent controls from the same plate as the tested compounds and expressed as percent of neutral control. Concentration-response curves were fit in GeneData Screener (Basel, Switzerland) Condeseo module using the Hill equation and AC50 values were determined. […] Detailed description of the methods, data and analysis methods for this dataset are described in a separate publication.

PXR (NR1I2) [7] = target: T2, PXR (NR1I2); assay: ATG_PXR_TRANS: Factorial reporter gene assay (HepG2); format: cell-based; parameters: endogenous in cells; host or cells: HepG2; conditions: HepG2
Method: as §1, §2

CYP3A4 = assay: CLZD_CYP3A4: Change in expression of CYP3A4 (primary human hepatocytes); format: cell-based; conditions: 24 hr
Method: as §3, §4

Mouse Liver [8] = conditions: ref ToxRefDB, cited from earlier work
Mouse Liver [9] = conditions: mouse chronic study, liver; coded 6 / Inf, code not explained in table; ref ToxRefDB; cited from earlier work
[10] = mouse chronic study, liver, coded 6 / Inf, code not explained in table
[11] = rat chronic study, liver, coded 6 / 0, code not explained in table

In the case of CCNc1nc(Cl)nc(NCC)n1 [r284], the ATG_PPARg_TRANS [1] is reported as 4.398, the CLZD_CYP1A1_24 (CYP1A1) is reported as 5.018 and the CLZD_CYP1A2_24 (CYP1A2) is reported as 5.016. The CLZD_CYP2B6_24 (CYP2B6) was 4.983, the CHR_Rat_Liver_1_AnyLesion (Rat Liver [2]; chronic study, rat liver) was 6 and the CHR_Rat_Liver_2_PreneoplasticLesion (Rat Liver [3]; chronic study, rat liver) was 6. The CHR_Rat_Liver_3_NeoplasticLesion (Rat Liver [4]; chronic study, rat liver) was 6 and the ATG_PXRE_CIS (PXR (NR1I2) [5]; HepG2 reporter) was 4.456.
With N#CSCSC#N [row 206] the CLZD_CYP2B6_24 (CYP2B6) was 5.076, the NVS_NR_hPXR (PXR (NR1I2) [6]) was 5.324 and the ATG_PXRE_CIS (PXR (NR1I2) [5]; HepG2) was 5.699.
Molecule Cc1nc(N(C)C)nc(OC(=O)N(C)C)c1C [r247] has a CLZD_CYP1A2_24 (CYP1A2) of 5.15, a CLZD_CYP2B6_24 (CYP2B6) of 5.267 and an ATG_PXRE_CIS (PXR (NR1I2) [5]; HepG2) of 4.301.
For CCSC(=O)N1CCCCCC1 [row 214], the CHR_Rat_Liver_1_AnyLesion (Rat Liver [2]; chronic rat study, liver) is listed as 0, the CHR_Rat_Liver_2_PreneoplasticLesion (Rat Liver [3]; chronic rat study, liver) is listed as 0 and the CHR_Rat_Liver_3_NeoplasticLesion (Rat Liver [4]; chronic rat study, liver) is listed as 0. It also gave an ATG_PXR_TRANS (PXR (NR1I2) [7]) of 4.208 and an ATG_PXRE_CIS (PXR (NR1I2) [5]; HepG2) of 4.602.
In the case of COc1nc(C)nc(NC(=O)NS(=O)(=O)c2ccccc2CCC(F)(F)F)n1 [r266], the CLZD_CYP2B6_24 (CYP2B6) is given as 5.694, the CLZD_CYP3A4_24 (CYP3A4) is given as 5.037 and the CHR_Mouse_Liver_1_AnyLesion (Mouse Liver [8]; chronic study, mouse liver) is given as 6. For the same molecule, the CHR_Rat_Liver_1_AnyLesion (Rat Liver [2]; chronic study, rat liver) was 0, the CHR_Rat_Liver_2_PreneoplasticLesion (Rat Liver [3]; chronic study, rat liver) was 0 and the CHR_Rat_Liver_3_NeoplasticLesion (Rat Liver [4]; chronic study, rat liver) was 0. The ATG_PXRE_CIS (PXR (NR1I2) [5]; HepG2 reporter) was 4.377.
In the case of COc1nc(C)nc(NC(=O)NS(=O)(=O)c2ccccc2CCC(F)(F)F)n1 [r268], the NVS_NR_hPXR (PXR (NR1I2) [6]) is listed as 4.469, the CHR_Mouse_Liver_1_AnyLesion (Mouse Liver [8]; chronic study, mouse liver) is listed as 6 and the CHR_Rat_Liver_1_AnyLesion (Rat Liver [2]; chronic study, rat liver) is listed as 0. The CHR_Rat_Liver_2_PreneoplasticLesion (Rat Liver [3]; chronic study, rat liver) was 0, the CHR_Rat_Liver_3_NeoplasticLesion (Rat Liver [4]; chronic study, rat liver) was 0 and the ATG_PXRE_CIS (PXR (NR1I2) [5]; HepG2 reporter) was 4.509.
In the case of COc1nc(C)nc(NC(=O)NS(=O)(=O)c2ccccc2OCCCl)n1 [chemical 307], the CHR_Mouse_Liver_1_AnyLesion (Mouse Liver [8]; [10]) is listed as 6, the CHR_Mouse_Liver_2_PreneoplasticLesion (Mouse Liver [9]) is listed as 6 and the CHR_Rat_Liver_1_AnyLesion (Rat Liver [2]; [11]) is listed as 0. The CHR_Rat_Liver_2_PreneoplasticLesion (Rat Liver [3]; [11]) was 0 and the CHR_Rat_Liver_3_NeoplasticLesion (Rat Liver [4]; [11]) was 0.
In the case of CC(COc1ccc(Oc2ccccc2)cc1)Oc1ccccn1 (stereo not shown) [r274], the ATG_PPARg_TRANS [1] is reported as 4.42, the CLZD_CYP2B6_24 (CYP2B6) is reported as 5.377 and the CLZD_CYP3A4_24 (CYP3A4) is reported as 5.096. The CHR_Rat_Liver_1_AnyLesion (Rat Liver [2]; chronic study, rat liver) was 0, the CHR_Rat_Liver_2_PreneoplasticLesion (Rat Liver [3]; chronic study, rat liver) was 0 and the CHR_Rat_Liver_3_NeoplasticLesion (Rat Liver [4]; chronic study, rat liver) was 0. For the same molecule, the ATG_PXRE_CIS (PXR (NR1I2) [5]; HepG2 reporter) was 4.886.
For COC(=O)c1c(C(F)F)nc(C(F)(F)F)c(C2=NCCS2)c1CC(C)C [chemical 297], the CHR_Mouse_Liver_1_AnyLesion (Mouse Liver [8]; [10]) is listed as 6, the CHR_Mouse_Liver_2_PreneoplasticLesion (Mouse Liver [9]) is listed as 6 and the CHR_Rat_Liver_1_AnyLesion (Rat Liver [2]; [11]) is listed as 6. For the same molecule, the CHR_Rat_Liver_2_PreneoplasticLesion (Rat Liver [3]; [11]) was 0 and the CHR_Rat_Liver_3_NeoplasticLesion (Rat Liver [4]; [11]) was 0.

Reference: article PMC3038857, “Using Nuclear Receptor Activity to Stratify Hepatocarcinogens” (PLoS ONE, 2011)
